# In PMC11939078, “TAK-994 mechanistic investigation into drug-induced liver injury” (Toxicological Sciences, 2025):
# Where two headings read alike, the source gives them in different places.
# Assays:
# [1] = test system: human liver microtissues + FFA; test: Hepatotoxicity in steatosis liver model (free fatty acids); format: cell-based; conditions: Homo sapiens, 336 h; free fatty acids added to medium; read-out: IC50, co-culture (14 days) + FFA (Fig. 3A)
# Protocol: Mono and co-culture model cells were exposed to TAK-994 (0.1, 0.3, 1, 3.16, 10, 31.6, or 100 μM in 0.5% DMSO) for 14 days (TAK-994 administered on Days 0, 5, and 9). The cell culture medium was supplemented with free fatty acids of 100 μM of Oleic acid and 66 μM of Palmitic acid. Six replicates were tested for each condition. The vehicle control was 0.5% DMSO, and the positive control was chlorpromazine (0.1, 0.3, 1, 3.16, 10, 31.6, or 100 μM in DMSO). Cellular ATP content was measured in the cell lysate on Day 14 of treatment. LDH release was measured in the cell supernatant on Days 5, 9, and 14 and normalized to lysed controls. Cellular triglyceride content was measured in the microtissues on Day 14.
# (§1) Intracellular ATP content in model lysates was measured with the CellTiter-Glo® 2.0 Cell Viability Assay (Catalogue No. G9243, Promega). The Bioluminescent LDH Release Toxicity Assay Kit (Catalogue No. J2380, Promega) was used to assess extracellular LDH release and normalized to lysed controls. ATP, LDH, GSH, and triglycerides were measured according to internal technical operating procedures.
# human liver microtissues [2] = test: Human liver microtissue (co-culture) cytotoxicity, cellular ATP; format: cell-based; conditions: for detection of hepatotoxicity by HepG2 72-h / human liver microtissue assays: retrospective application
# Protocol: (§2) Toxicology of TAK-994 was assessed using lnSphero’s 3D lnSight Human Liver models, based on N-acetyl-L-cysteine causality assay, glutathione depletion assay, and lipopolysaccharide (LPS)-sensitization assay. Hepatotoxicity was assessed in 7- and 14-day mono and co-culture models, in which cells were exposed to TAK-994 (0.1, 0.3, 1, 3.16, 10, 31.6, or 100 μM) […].
# (§3) The test system was Human 3D InSight Liver Models, production ID hLiMT_589, cryopreserved primary human hepatocytes (Lot IPDH_18; single donor) in monoculture or in co-culture with cryopreserved primary human nonparenchymal cells (Lot IPHN_17; single donor). Human liver microtissues are composed of roughly 1000 hepatocytes and 1000 non-parenchymal live cells. Non-parenchymal liver cell fractions are expected to be composed of Kupffer cells and liver endothelial cells however, these were not identified.
# The culture medium was 3D InSight Human Liver Maintenance Medium TOX (Catalogue No. CS-07-001, InSphero). The treated cells in 96-well Akura™ plates were incubated in a humidified cell culture incubator (37°C, 5% CO2).
# (§4) Mono and co-culture model cells were exposed to TAK-994 (0.1, 0.3, 1, 3.16, 10, 31.6, or 100 μM in 0.5% DMSO) for 7 days (TAK-994 administered on Days 0 and 4) or 14 days (TAK-994 administered on Days 0, 5, and 9). Six replicates were tested for each condition. The vehicle control was 0.5% DMSO, and the positive control was chlorpromazine (0.1, 0.3, 1, 3.16, 10, 31.6, or 100 μM in DMSO). Cellular ATP content was measured in the cell lysate on Days 7 or 14 of treatment. LDH release was measured in the cell supernatant on Days 4 and 7 or on Days 5, 9, and 14 and normalized to lysed controls.
# as §1
# Hepatocyte spheroids = test: Hepatocyte spheroid (monoculture, no nonparenchymal cells) cytotoxicity, cellular ATP; format: cell-based, human; conditions: Homo sapiens, Hepatocyte; cellular ATP; read-out: IC50, hepatocyte spheroids (Fig. 2B)
# Protocol: as §2, §3, §4, §1
# [3] = HepG2 Glu/Gal 24-h cytotoxicity (mitochondrial toxicity); format: cell-based, human; conditions: human, HepG2 cells
# Protocol: (§5) Cytotoxicity of TAK-994 was evaluated in glucose or galactose medium after 24 h and in glucose medium after 72 h in HepG2 cells, with cryopreserved HepG2 cells thawed and seeded onto assay plates at 5,000 cells/well in glucose or galactose medium for the 24-h assay and at 2,500 cells/well in glucose medium for the 72-h assay. After ∼24 h of incubation at 37 °C in 5% CO2, the cells were incubated with test solutions under the same conditions for 24 h for the plate with 5,000 cells/well or 72 h for the plate with 2,500 cells/well. Cytotoxicity of TAK-994 was also assessed using HepG2 cells with CYP3A4 overexpression using a lentivirus vector. HepG2/CYP3A4 cells were incubated in media containing TAK-994 (0.09 to 200 μM), positive control aflatoxin B1 (0.04 to 80 μM), or 1.0% DMSO (negative control). In both cytotoxicity assays, adenosine triphosphate (ATP) content was assessed after incubation using a commercial luminescence assay (CellTiter-Glo; Promega Co., Ltd, WI, United States).
# HepG2 cells (American Type Culture Collection [ATCC, VA, USA]) were acclimated to Dulbecco's Modified Eagle Medium (DMEM; Thermo Fisher Scientific, MA, USA) with either high glucose or high galactose and containing 10% FBS for 1 week then cryopreserved. […] After the incubation, CellTiter-Glo® (Promega Co., Ltd., WI, USA) was added to the assay plates, cells were incubated for 30 minutes, and luminescence was recorded to measure the ATP content using an EnVision plate reader (PerkinElmer Co., Ltd., MA, USA). The test compound TAK-994 was evaluated at concentrations of 0.046, 0.14, 0.41, 1.2, 3.7, 11, 33, and 100 μM. Positive controls rotenone and staurosporine were purchased from FUJIFILM Wako Pure Chemical Corporation (Osaka, Japan) and evaluated at concentrations of 0.046, 0.14, 0.41, 1.2, 3.7, 11, 33, and 100 μM in DMSO (rotenone) or 0.0046, 0.014, 0.041, 0.12, 0.37, 1.1 , 3.3, and 10 μM in DMSO (staurosporine). […]
# [4] = HepG2 72-h cytotoxicity assay (glucose medium, ATP content); format: cell-based, human; conditions: human, HepG2 cells
# Protocol: as §5
# HepG2 cells (American Type Culture Collection [ATCC, VA, USA]) were acclimated to Dulbecco's Modified Eagle Medium (DMEM; Thermo Fisher Scientific, MA, USA) with either high glucose or high galactose and containing 10% FBS for 1 week then cryopreserved. The cryopreserved HepG2 cells were thawed, cultured for 24 hours, then seeded at 5000 cells/well in glucose or galactose medium for the 24-hour assay and at 2500 cells/well in glucose medium for the 72-hour assay onto the assay plates. After approximately 24 hours of incubation at 37°C in 5% CO2, the cells were incubated with test solutions under the same conditions for 24 hours for the plate with 5000 cells/well or 72 hours for the plate with 2500 cells/well. After the incubation, CellTiter-Glo® (Promega Co., Ltd., WI, USA) was added to the assay plates, cells were incubated for 30 minutes, and luminescence was recorded to measure the ATP content using an EnVision plate reader (PerkinElmer Co., Ltd., MA, USA). The test compound TAK-994 was evaluated at concentrations of 0.046, 0.14, 0.41, 1.2, 3.7, 11, 33, and 100 μM. Positive controls rotenone and staurosporine were purchased from FUJIFILM Wako Pure Chemical Corporation (Osaka, Japan) and evaluated at concentrations of 0.046, 0.14, 0.41, 1.2, 3.7, 11, 33, and 100 μM in DMSO (rotenone) or 0.0046, 0.014, 0.041, 0.12, 0.37, 1.1 , 3.3, and 10 μM in DMSO (staurosporine). Two experiments were conducted at each concentration.
# Inhibition rate (%) = (1-mean of sample values / mean of Max values) × 100, where Max values = vehicle control.
# human liver microtissues [5] = test: Glutathione depletion (BSO) assay in liver microtissues; format: cell-based
# Protocol: as §2
# Co-culture model cells were pretreated with BSO (150 μM in DMSO) and then exposed to TAK-994 (0.1, 0.3, 1, 3.16, 10, 31.6, or 100 μM in 0.5% DMSO) in the presence and absence of BSO for 14 days (during the treatment period, TAK-994 with or without BSO was administered on Days 0, 5, and 9). Six replicates were tested for each condition. The vehicle control was 0.5% DMSO and the positive control was acetaminophen (0.6, 1.25, 2.5, or 5 mM in Medium TOX). Cellular ATP content was measured in the cell lysate on Day 14 of treatment. LDH release was measured on Days 5, 9, and 14 in the cell supernatant. For cells administered BSO alone, cellular ATP content was also measured on Day 3 and LDH release was also determined between Days 0 to 3. LDH measurements were normalized to lysed controls. Cellular GSH content was measured by GSH-Glo™ Glutathione Assay (Promega) on Days 0, 3, and 14 in the positive control group.
# as §1
# human hepatocytes = test system: human hepatocytes; set-up: method as in Thompson et al. 2012; conditions: ref Thompson et al. 2012; cited from earlier work
compound,measurement,setting,value
"CN(C)CCCN1c2ccccc2Sc2ccc(Cl)cc21 [Chlorpromazine, chlorpromazine, reference compound]",IC50,[1],8.35 µM
same,IC50,"human liver microtissues [2]; Homo sapiens, 336 h, without FFA, read-out: IC50, co-culture (14 days) (Fig. 3A)",6.16 µM
same,IC50,"human liver microtissues [2]; Homo sapiens, cellular ATP, read-out: IC50, liver microtissues (Fig. 2B)",7.64 µM
same,IC50,Hepatocyte spheroids,9.26 µM
COc1cccc([C@H]2O[C@H](CC(=O)N3CCC(CC(=O)O)CC3)C(=O)N(CC(C)(C)COC(C)=O)c3ccc(Cl)cc32)c1OC [TAK-475],IC50 at 24 h,[3],> 100 µM
same,IC50 at 72 h,[4],> 100 µM
same,IC50,"human liver microtissues [2]; Homo sapiens, 336 h, read-out: Liver microtissue toxicity for 14 days IC50",58.6 µM
same,detection of hepatotoxicity by HepG2 72-h / human liver microtissue assays,human liver microtissues [2],detected
Cc1cc(OCCCS(C)(=O)=O)cc(C)c1-c1cccc(COc2ccc3c(c2)OC[C@H]3CC(=O)O)c1 [TAK-875],IC50 at 24 h,[3],> 100 µM
same,IC50 at 72 h,[4],> 100 µM
same,IC50,human liver microtissues [2]; read-out: Liver microtissue toxicity for 14 days IC50,12.7 µM
same,detection of hepatotoxicity by HepG2 72-h / human liver microtissue assays,human liver microtissues [2],detected
"CC(=O)Nc1ccc(O)cc1 [acetaminophen, reference compound]",sensitization of liver microtissues by buthionine sulfoximine depletion,human liver microtissues [5],induced liver microtissue sensitivity
Cc1c(C(=O)NN2CCCCC2)nn(-c2ccc(Cl)cc2Cl)c1-c1ccc(Cl)cc1 [rimonabant],CVB of marketed drugs without high risk of hepatotoxicity,human hepatocytes,elevated CVB
